Results published in patent US20240051937A1, “ISOINDOLINONE AMIDE COMPOUNDS USEFUL TO TREAT DISEASES ASSOCIATED WITH GSPT1” (Monte Rosa Therapeutics, Inc., priority 2021, published 2024).
Where two headings read alike, the source gives them in different places.

Assays:
GSPT1 = GSPT1 (Homo sapiens, UniProt P15170+Q96SW2); experiment: Immunofluorescence assay for GSPT1 degradation in CAL-Si cells; format: cell-based; parameters: CAL-Si cells were purchased from DSMZ (cat. Number ACC302); host or cells: CAL-Si (CAL-51) cells; conditions: 6 hours treatment
Sequence of GSPT1 (P15170 whole entry): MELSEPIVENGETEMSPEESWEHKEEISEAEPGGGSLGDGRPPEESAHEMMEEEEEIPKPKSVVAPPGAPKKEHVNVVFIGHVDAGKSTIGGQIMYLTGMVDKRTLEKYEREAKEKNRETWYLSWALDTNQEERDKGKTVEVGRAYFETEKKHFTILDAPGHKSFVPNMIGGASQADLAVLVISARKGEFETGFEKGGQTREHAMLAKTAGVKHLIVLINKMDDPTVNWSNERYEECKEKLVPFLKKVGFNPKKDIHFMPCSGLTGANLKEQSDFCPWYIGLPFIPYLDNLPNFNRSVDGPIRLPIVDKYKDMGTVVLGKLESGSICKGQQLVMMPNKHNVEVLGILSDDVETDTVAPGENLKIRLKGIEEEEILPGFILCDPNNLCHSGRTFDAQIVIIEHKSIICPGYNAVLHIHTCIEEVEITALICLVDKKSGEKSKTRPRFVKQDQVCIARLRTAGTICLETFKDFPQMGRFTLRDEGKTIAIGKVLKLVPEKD
Sequence of GSPT1 (Q96SW2 whole entry): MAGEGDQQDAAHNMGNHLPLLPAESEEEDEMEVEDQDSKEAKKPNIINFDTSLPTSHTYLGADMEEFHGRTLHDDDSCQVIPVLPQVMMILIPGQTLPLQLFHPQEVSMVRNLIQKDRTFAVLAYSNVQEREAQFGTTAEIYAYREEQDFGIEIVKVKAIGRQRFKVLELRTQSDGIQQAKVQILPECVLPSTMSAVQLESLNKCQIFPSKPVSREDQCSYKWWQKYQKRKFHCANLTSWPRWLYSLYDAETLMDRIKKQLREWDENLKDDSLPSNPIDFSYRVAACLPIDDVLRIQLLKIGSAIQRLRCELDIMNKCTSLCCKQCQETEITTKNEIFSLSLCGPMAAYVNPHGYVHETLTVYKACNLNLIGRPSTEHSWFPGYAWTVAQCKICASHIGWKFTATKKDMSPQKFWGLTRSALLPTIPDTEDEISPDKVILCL
Sequence of GSPT1 (Q16531 whole entry partner): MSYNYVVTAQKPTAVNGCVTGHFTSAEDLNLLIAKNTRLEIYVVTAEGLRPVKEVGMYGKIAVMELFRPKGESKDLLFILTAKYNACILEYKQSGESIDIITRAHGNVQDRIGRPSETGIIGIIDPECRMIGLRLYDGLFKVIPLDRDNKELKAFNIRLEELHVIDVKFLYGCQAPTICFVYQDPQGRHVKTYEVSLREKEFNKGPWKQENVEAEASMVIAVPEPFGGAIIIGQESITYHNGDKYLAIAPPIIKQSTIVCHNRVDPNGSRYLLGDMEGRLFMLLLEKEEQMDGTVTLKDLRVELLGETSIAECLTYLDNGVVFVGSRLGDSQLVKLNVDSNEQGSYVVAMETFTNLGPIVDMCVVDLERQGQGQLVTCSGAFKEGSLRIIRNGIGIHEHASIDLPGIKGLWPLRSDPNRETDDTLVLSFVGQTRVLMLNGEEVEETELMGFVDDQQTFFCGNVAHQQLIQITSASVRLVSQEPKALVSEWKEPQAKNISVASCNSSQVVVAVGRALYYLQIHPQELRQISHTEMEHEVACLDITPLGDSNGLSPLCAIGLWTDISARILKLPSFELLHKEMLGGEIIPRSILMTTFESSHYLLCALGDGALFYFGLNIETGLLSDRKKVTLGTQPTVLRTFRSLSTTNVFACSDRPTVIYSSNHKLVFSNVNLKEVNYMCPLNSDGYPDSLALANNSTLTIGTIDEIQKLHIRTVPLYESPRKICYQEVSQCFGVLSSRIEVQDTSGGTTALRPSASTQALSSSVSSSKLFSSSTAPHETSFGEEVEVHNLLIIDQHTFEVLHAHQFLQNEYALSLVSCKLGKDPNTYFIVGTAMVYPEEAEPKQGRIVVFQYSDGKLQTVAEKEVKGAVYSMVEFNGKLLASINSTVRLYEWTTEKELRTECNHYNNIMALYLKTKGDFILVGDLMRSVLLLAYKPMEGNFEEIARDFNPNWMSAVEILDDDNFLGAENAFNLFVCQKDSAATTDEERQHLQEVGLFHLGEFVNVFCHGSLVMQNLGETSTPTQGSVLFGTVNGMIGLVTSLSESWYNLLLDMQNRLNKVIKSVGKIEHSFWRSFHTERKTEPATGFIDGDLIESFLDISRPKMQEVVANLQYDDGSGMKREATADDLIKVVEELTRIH
Description: The representative compounds were tested in an immunofluorescence assay for their activity to bind to degrade GSPT1. CAL-Si cells were purchased from DSMZ (cat. Number ACC302), sub-cultured in 90% Dulbecco's MEM (4.5 g/L glucose, Gibco 11965)+10% […] inactivated FBS (BioConcept, 2-01F136I) and incubated at 37° C., 5% CO2. For the assay, imaging microtiterplate Cell Carrier 96 Ultra (Perkin Elmer 6055302) were pre-coated with Fibronectin (Sigma F085, 30 μl at 0.2 μg/ml) in PBS (100 μl, Gibco 14190) for 45 min at room temperature, rinsed with PBS and CAL-Si cells (30K cells/well) were plated and let to adhere overnight. Cells were treated with compounds typically using a serial dilution ranging from 30 μM to 0.1 nM for 6 hours. Compounds were stored at 10 mM DMSO stocks. Vehicle (DMSO), positive (CC-885, 10 μM) and rescue controls (positive control plus 0.2 μM bortezomib) were also included at this stage. Cells were subsequently rinsed with PBS and fixed in 10% Formalin solution (50 μl, Sigma HT5011)) for 20 mins at room temperature. Following three consecutive PBS washes (100 μl), cells were permeabilized in 0.1% Triton X-100 in PBS (Sigma 93443, 50 μl) for 15 mins at room temperature. Following three further PBS washes, […] blocking buffer (1% BSA, Sigma A4503, in PBS) was added for 45 min for signal-to-noise reduction.
Primary antibody (human GSPT1, Sigma HPA052488) was diluted in blocking buffer (dil.1/300, 35 μl/well) and incubated with the cells overnight at 4° C. After three PBS washes, Alexa-fluor 488 coupled secondary antibodies (Invitrogen, A32731, dil.1/1000), Alexa-fluor 647-Phalloidin (Invitrogen, A22287, dil.1/200) and DAPI (Thermo, #62248, dil.1/1000) were diluted in blocking buffer and incubated with the samples for 2 hours at room temperature. After three final PBS washes, samples were conserved in […] PBS in the dark, until measurement. Image acquisition was performed on the Operetta High-Content Imager (Perkin-Elmer). Fluorescence intensity of Alexa-Fluor 488 (GSPT1), Alexa-Fluor 647 (Actin) and DAPI (Nucleus) were measured. For the determination of GSPT1 DC50 values, a custom algorithm implemented in the PerkinElmer image analysis software Harmony-Acapella® was developed. After user-defined setting of adjustment parameters, the analysis was run identically without human intervention for all image fields. DAPI staining of the nuclei was used to determine the location of cells using standard nuclei detection modules. Segmentation artifacts were removed by threshold-based filters for area, roundness and intensity. The outline of the cells was determined analogously from the sum of the normalized, smoothed DAPI and Actin channel, starting from each nucleus.
The Alexa-Fluor 488 (GSPT1) signal intensity in each cell was finally measured, in order to obtain a Mean intensity per cell. GSPT1 degradation (DC50) was calculated after normalization to controls and data import in CDD vault Database, using non-linear regression.

[1] = biological target: T1, Full length wild-type cereblon CRBN (Homo sapiens, UniProt Q96SW2); experiment: Fluorescence polarization (FP) assay indicating cereblon binding
T1 construct: Full length wild-type cereblon CRBN (80.0 nM, 10 μL) was incubated in assay buffer
T1 sequence (Q96SW2 whole entry): as the sequence (Q96SW2 whole entry) above
From the text: Protocol for Fluorescent Polarization Assay
Compound activity was monitored in a fluorescence polarization (FP) homogeneous assay using 1-[5-({2-[2-(2-{[2-(2,6-dioxopiperidin-3-yl)-1,3-dioxo-2,3-dihydro-1H-isoindol-4-yl]oxy}acetamido)ethoxy]ethyl}carbamoyl)pentyl]-3,3-dimethyl-2-[(1E,3E)-5-[(2E)-1,3,3-trimethyl-5-sulfo-2,3-dihydro-1H-indol-2-ylidene]penta-1,3-dien-1-yl]-3H-indol-1-ium-5-sulfonate as a fluorescent probe. Unless otherwise stated, all reagents were purchased from Sigma Aldrich. Enzymatic reactions were conducted in Perkin-Elmer Black 384 well ProxiPlate Plus (catalogue no. 6008269) in 10 μL total volume. Full length wild-type cereblon CRBN (80.0 nM, 10 μL) was incubated in assay buffer containing 20 mM HEPES (pH 8.0), […], 0.5 mM TCEP and 0.05% Tween 20 in the presence or absence of compound (300 nL). Inhibitors were stored as 10 mM DMSO stocks in an inert environment (low humidity, dark, low oxygen, room temperature) using the Storage Pod System. Compounds and DMSO were dispensed using the Echo E5XX (Labcyte Inc. USA) to give concentrations from 300 to 0.937 or 3000 to 9.3 nM in a 12 data point curve. […] Following incubation at room temperature for 30 min, the assay was initiated by dispensing the probe to a final concentration of 5 nM (2.5 nL of a 20 μM stock) using the Echo E5XX. FP was measured after a period of 12 hours using a Pherastar plate reader (BMG Labtech, Germany) exciting at 590 nm and measuring the amount of parallel and perpendicular light at 675 nm. The FP signal was subsequently normalized to the no-compound control (i.e., DMSO). Analysis and IC50 values were derived using Dotmatics (Dotmatics UK) software.

[2] = read-out: Code: activity for GSPT1 degradation (DC50)
[3] = cereblon binding, CRBN 80.0 nM, probe 5 nM, FP read after 12 hours, read-out: rFP IC50
[4] = fluorescence polarization assay, read-out: IC50 value (cereblon binding)
[5] = GSPT1 degradation, read-out: DC50

Row | Compound | DC50 (GSPT1; [2]) [µM] | IC50 [1, 3] [µM] | IC50 [1, 4] [µM] | DC50 (GSPT1; [5]) [µM]
1 | O=C1CCC(N2Cc3ccc(CCC(=O)N4CCC(Oc5ccccc5)C4)cc3C2=O)C(=O)N1 (stereo not shown) [Compound 21] | > 0.3 | > 1.7 | – | –
2 | Cc1c(Cl)cc(NC(=O)CCc2ccc3c(c2)C(=O)N(C2CCC(=O)NC2=O)C3)cc1CN1CC2CC1CO2 (stereo not shown) [Compound 22] | 0.03 to 0.3 | 0.5 to 1.1 | < 1.1 | –
3 | O=C1CCC(N2Cc3ccc(CCC(=O)Nc4cc(Cl)cc(OC(F)F)c4)cc3C2=O)C(=O)N1 (stereo not shown) [Compound 23] | ≤ 0.03 | > 1.7 | – | 0.027
4 | Cc1c(Cl)cc(NC(=O)CCc2ccc3c(c2)C(=O)N(C2CCC(=O)NC2=O)C3)cc1CN1CC2CCC(C1)O2 (stereo not shown) [Compound 24] | 0.03 to 0.3 | 1.1 to 1.7 | – | –
5 | O=C1CCC(N2Cc3ccc(CCC(=O)Nc4cc(Cl)cc(OCC5CCNC5)c4)cc3C2=O)C(=O)N1 (stereo not shown) [Compound 25] | > 0.3 | 0.5 to 1.1 | < 1.1 | –
6 | O=C1CCC(N2Cc3ccc(CCC(=O)Nc4ccc5c(c4)OCC5)cc3C2=O)C(=O)N1 (stereo not shown) [Compound 26] | > 0.3 | 0.5 to 1.1 | < 1.1 | –
7 | O=C1CCC(N2Cc3ccc(CCC(=O)N4CCN(c5ccccc5)CC4)cc3C2=O)C(=O)N1 (stereo not shown) [Compound 27] | > 0.3 | > 1.7 | – | –
8 | O=C1CCC(N2Cc3ccc(CCC(=O)Nc4cc(F)cc(OC(F)F)c4)cc3C2=O)C(=O)N1 (stereo not shown) [Compound 28] | 0.03 to 0.3 | 0.5 to 1.1 | < 1.1 | –
9 | Cc1ccc(NC(=O)CCc2ccc3c(c2)C(=O)N(C2CCC(=O)NC2=O)C3)cc1OC(F)F (stereo not shown) [Compound 29] | ≤ 0.03 | 1.1 to 1.7 | – | 0.006
10 | O=C1CCC(N2Cc3ccc(CCC(=O)Nc4ccc(F)c(OC(F)F)c4)cc3C2=O)C(=O)N1 (stereo not shown) [Compound 30] | 0.03 to 0.3 | 0.5 to 1.1 | < 1.1 | –
11 | CN1CCC(Oc2cc(Cl)cc(NC(=O)CCc3ccc4c(c3)C(=O)N(C3CCC(=O)NC3=O)C4)c2)C1 (stereo not shown) [Compound 31] | 0.03 to 0.3 | 0.5 to 1.1 | < 1.1 | –
12 | CCOc1cc(NC(=O)CCc2ccc3c(c2)C(=O)N(C2CCC(=O)NC2=O)C3)ccc1C (stereo not shown) [Compound 32] | 0.03 to 0.3 | 0.5 to 1.1 | < 1.1 | –
13 | COc1cc(NC(=O)CCc2ccc3c(c2)C(=O)N(C2CCC(=O)NC2=O)C3)ccc1C (stereo not shown) [Compound 33] | 0.03 to 0.3 | 0.5 to 1.1 | < 1.1 | –
14 | O=C1CCC(N2Cc3ccc(CCC(=O)Nc4ccc(-c5ccccc5)nc4)cc3C2=O)C(=O)N1 (stereo not shown) [Compound 34] | ≤ 0.03 | ≤ 0.5 | < 1.1 | 0.013
15 | Cc1c(CN2CCOCC2)cc(NC(=O)CCc2ccc3c(c2)C(=O)N(C2CCC(=O)NC2=O)C3)cc1OC(F)F (stereo not shown) [Compound 35] | ≤ 0.03 | 0.5 to 1.1 | < 1.1 | 0.012
16 | COc1cc(NC(=O)CCc2ccc3c(c2)C(=O)N(C2CCC(=O)NC2=O)C3)cnc1C (stereo not shown) [Compound 36] | > 0.3 | 1.1 to 1.7 | – | –
17 | CN1CCC(COc2cc(Cl)cc(NC(=O)CCc3ccc4c(c3)C(=O)N(C3CCC(=O)NC3=O)C4)c2)C1 (stereo not shown) [Compound 37] | > 0.3 | 0.5 to 1.1 | < 1.1 | –
18 | O=C1CCC(N2Cc3ccc(CCC(=O)Nc4ccc(C5CC5)cc4)cc3C2=O)C(=O)N1 (stereo not shown) [Compound 38] | > 0.3 | ≤ 0.5 | < 1.1 | –
